Measurements reported in the supplement of paper PMC10307832.

Tests used:
Assay in all cases: relative viability (nuclei count vs DMSO), 5 days (fraction); higher = more cells survive
Kobe2602 + Foretinib = compound: C1=CC(=CC=C1NC(=S)NNC2=C(C=C(C=C2[N+](=O)[O-])C(F)(F)F)[N+](=O)[O-])F [Kobe2602] + COc1cc2c(Oc3ccc(NC(=O)C4(C(=O)Nc5ccc(F)cc5)CC4)cc3F)ccnc2cc1OCCCN1CCOCC1 [Foretinib] (partner 0.25 µM)
How it was run: (§1)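 Lung cancer cell lines were pin-tool dosed in 1536-well plates on the day after seeding, with either a lone drug or a fixed anchor-drug dose plus five library-drug doses (not always all listed) in √10 steps. Nuclei were counted on 4× images after 5 days. Relative viability is the ratio of treated-well to vehicle-well nuclei counts, with each value a median of duplicate plates.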

Kobe2602 + Lapatinib = compound: C1=CC(=CC=C1NC(=S)NNC2=C(C=C(C=C2[N+](=O)[O-])C(F)(F)F)[N+](=O)[O-])F [Kobe2602] + CS(=O)(=O)CCNCc1ccc(-c2ccc3ncnc(Nc4ccc(OCc5cccc(F)c5)c(Cl)c4)c3c2)o1 [Lapatinib] (partner 2 µM)
How it was run: as §1

[1] = compound: COc1cc2nccc(Oc3ccc(NC(=O)C4(C(=O)Nc5ccc(F)cc5)CC4)cc3)c2cc1OC [Cabozantinib] + Cc1cc(Nc2cc(N3CCN(C)CC3)nc(Sc3ccc(NC(=O)C4CC4)cc3)n2)n[nH]1 [Tozasertib] (partner 0.1 µM)
How it was run: as §1

[2] = compound: COc1cc2nccc(Oc3ccc(NC(=O)C4(C(=O)Nc5ccc(F)cc5)CC4)cc3)c2cc1OC [Cabozantinib] + Nc1ncn([C@H]2C[C@H](O)[C@@H](CO)O2)c(=O)n1 [Decitabine] (partner 2 µM)
How it was run: as §1

| Cell Line | relative viability (Kobe2602 + Foretinib; first compound 0.2 µM) | relative viability (Kobe2602 + Foretinib; first compound 0.6325 µM) | relative viability (Kobe2602 + Foretinib; first compound 2 µM) | relative viability (Kobe2602 + Foretinib; first compound 6.325 µM) | relative viability (Kobe2602 + Foretinib; first compound 20 µM) | relative viability (Kobe2602 + Lapatinib; first compound 0.2 µM) | relative viability (Kobe2602 + Lapatinib; first compound 0.6325 µM) | relative viability (Kobe2602 + Lapatinib; first compound 6.325 µM) | relative viability (Kobe2602 + Lapatinib; first compound 20 µM) | relative viability ([1]; first compound 0.06325 µM) | relative viability ([1]; first compound 0.2 µM) | relative viability ([1]; first compound 0.6325 µM) | relative viability ([1]; first compound 2 µM) | relative viability ([2]; first compound 0.06325 µM) | relative viability ([2]; first compound 0.2 µM) | relative viability ([2]; first compound 0.6325 µM) | relative viability ([2]; first compound 2 µM) | relative viability (Kobe2602 + Lapatinib; first compound 2 µM) | relative viability ([1]; first compound 0.02 µM) | relative viability ([2]; first compound 0.02 µM) |
| --- | --- | --- | --- | --- | --- | --- | --- | --- | --- | --- | --- | --- | --- | --- | --- | --- | --- | --- | --- | --- |
| HCC-78 | 0.628 | 0.541 | 0.669 | 0.575 | 0.577 | 1.02 | 0.903 | 0.418 | 1.18 | 0.414 | 0.445 | 0.367 | 0.311 | 0.704 | 0.503 | 0.489 | 0.487 | – | – | – |
| HCC-366 | 0.945 | 0.969 | 0.966 | 0.919 | 0.959 | 1.05 | 1.16 | 0.979 | 0.968 | 0.108 | 0.101 | 0.065 | 0.0583 | 0.393 | 0.336 | 0.305 | 0.354 | 0.963 | 0.705 | 0.351 |
| HCC-827 | 0.999 | 1.11 | 1.03 | 1.04 | 1.1 | 0.189 | 0.211 | 0.177 | 0.227 | 0.481 | – | 0.436 | 0.414 | 0.362 | – | 0.36 | 0.309 | 0.231 | 0.456 | 0.28 |
| HOP-62 | 1.08 | 1.16 | 1.18 | 1.1 | 1.08 | 1.06 | 1.04 | 0.94 | 1.04 | 0.388 | 0.378 | 0.376 | 0.346 | 0.214 | 0.22 | 0.225 | 0.181 | 0.951 | 0.398 | 0.241 |
| IA-LM | 1.09 | 1.01 | 0.953 | 1.24 | 1.01 | 0.584 | 0.614 | 0.805 | 0.811 | – | – | – | – | – | – | – | – | 0.732 | – | – |
| LC-2-ad | 0.94 | 0.946 | 0.932 | 1.03 | 0.996 | 1.03 | 0.893 | 0.978 | 0.923 | 0.454 | 0.46 | 0.456 | 0.392 | 0.811 | 0.772 | 0.633 | 0.539 | 0.764 | – | 0.814 |
| LCLC-97TM1 | 0.834 | 0.928 | 1.01 | 0.956 | 0.924 | 1.05 | 1.01 | 0.965 | 0.893 | 0.27 | 0.252 | 0.217 | 0.282 | 0.262 | 0.252 | 0.265 | 0.21 | 0.817 | 0.288 | 0.24 |
| LCLC-103H | 0.82 | 0.905 | 0.751 | 0.832 | 0.723 | – | – | – | – | 0.471 | 0.474 | 0.486 | 0.391 | 0.791 | 0.722 | 0.721 | 0.748 | – | 0.552 | 0.716 |
| LK-2 | 1.48 | 1.74 | 1.28 | 1.14 | 1.41 | 1.02 | 0.857 | 0.83 | 1.09 | 0.169 | – | 0.18 | 0.175 | 0.369 | 0.336 | 0.301 | 0.267 | 0.961 | – | 0.182 |
| LOU-NH91 | 0.95 | 0.964 | 0.954 | 0.9 | 0.92 | 0.706 | 0.774 | 0.801 | 0.805 | 0.729 | – | 0.724 | 0.75 | 0.825 | 0.654 | 0.791 | 0.802 | 0.718 | 0.677 | 0.798 |
| LU99A | 0.803 | 0.874 | 0.806 | 0.822 | 0.769 | 0.989 | 0.921 | 0.97 | 1.07 | 0.245 | 0.258 | 0.255 | 0.224 | 1.01 | 0.854 | 0.787 | 0.882 | 0.959 | 0.27 | 0.843 |
| NCI-H441 | 0.884 | 0.901 | 0.978 | 1.02 | 0.914 | – | – | – | – | 0.72 | 0.673 | 0.509 | 0.649 | 0.24 | 0.241 | 0.273 | 0.231 | – | 0.646 | 0.204 |
| NCI-H522 | – | – | – | – | – | – | – | – | – | 0.535 | 0.502 | 0.614 | 0.511 | 0.655 | 0.564 | 0.74 | 0.654 | – | 0.612 | 0.577 |
| NCI-H1299 | 1.06 | 1.09 | 1.05 | 1.13 | 1.03 | 0.997 | 0.991 | 1.01 | 0.935 | – | – | – | – | – | – | – | – | 0.949 | – | – |
| NCI-H1563 | 0.996 | 0.928 | 0.964 | 1.02 | 0.996 | 0.912 | 1.37 | 1.04 | 1.02 | – | – | – | – | – | – | – | – | 1.03 | – | – |
| NCI-H1623 | 0.966 | 0.954 | 0.79 | 0.809 | 0.854 | – | – | – | – | 0.42 | 0.427 | 0.443 | 0.455 | – | – | – | – | – | 0.4 | – |
| NCI-H1648 | – | – | – | – | – | – | – | – | – | 0.658 | 0.51 | 0.59 | 0.385 | 0.524 | – | 0.532 | 0.516 | – | 0.704 | 0.469 |
| NCI-H1703 | 0.404 | 0.349 | 0.4 | 0.321 | 0.329 | 0.903 | 0.975 | 0.982 | 0.694 | – | – | – | – | – | – | – | – | 0.925 | – | – |
| NCI-H1792 | – | – | – | – | – | 0.963 | 0.878 | 0.928 | 0.978 | – | – | – | – | 0.557 | 0.609 | 0.588 | 0.444 | 0.992 | – | – |
| NCI-H2228 | 0.923 | 0.806 | 0.734 | 0.817 | 0.862 | 1.08 | 1.02 | 1.12 | 1.75 | 0.306 | 0.296 | 0.29 | 0.196 | – | – | – | – | 0.985 | 0.342 | – |
| NCI-H2342 | 1.08 | 1.16 | 0.968 | 0.991 | 1.23 | – | – | – | – | 0.516 | 0.553 | 0.478 | 0.401 | 0.832 | 0.765 | 0.788 | 0.544 | – | 0.656 | 0.642 |
| SW 900 | 0.979 | 0.926 | 0.821 | 0.854 | 0.993 | – | – | – | – | 0.481 | 0.814 | 0.464 | 0.299 | 0.508 | 0.412 | 0.475 | 0.556 | – | 0.551 | 0.44 |
